We go through seven molecules from patent publication US20110130447A1, “Production of hop extracts having oestrogenic and antiproliferative bioactivity” (priority 2004, published 2011).

The conditions of data set [1]: cited from earlier work; for oestrogenic activity: Milligan et al., 1999, 2000.
Data set [2] concerns oestrogen-responsive MCF-7 breast cancer cells. Description: Bioassay of 8-prenylnaringenin-induced proliferation of MCF-7 cells and its inhibition by xanthohumol. It counts as cell-based. As to the method: A bioassay was developed to probe proliferation of oestrogen-dependent cancer cells by 8-prenylnaringenin and to determine concentrations of xanthohumol required to inhibit this 8-prenylnaringenin-induced proliferation. Thereto, oestrogen-responsive MCF-7 breast cancer cells were grown in 96-well plates in the presence of a fixed and growth-stimulatory concentration of 8-prenylnaringenin and varying concentrations of xanthohumol. For each concentration of 8-prenylnaringenin (1 nM, 10 nM, and 100 nM), the concentrations of xanthohumol were 0 μM, 0.1 μM, 1 μM, 5 μM, 10 μM and 25 μM, respectively.

Data set [3] has as its system mouse mammary gland organ culture. Conditions: Gerhauser et al., 2002; cited from earlier work.
The target of another data set is T1, cyclooxygenase-2 (Homo sapiens, UniProt P35354).
T1 sequence (P35354 18-604): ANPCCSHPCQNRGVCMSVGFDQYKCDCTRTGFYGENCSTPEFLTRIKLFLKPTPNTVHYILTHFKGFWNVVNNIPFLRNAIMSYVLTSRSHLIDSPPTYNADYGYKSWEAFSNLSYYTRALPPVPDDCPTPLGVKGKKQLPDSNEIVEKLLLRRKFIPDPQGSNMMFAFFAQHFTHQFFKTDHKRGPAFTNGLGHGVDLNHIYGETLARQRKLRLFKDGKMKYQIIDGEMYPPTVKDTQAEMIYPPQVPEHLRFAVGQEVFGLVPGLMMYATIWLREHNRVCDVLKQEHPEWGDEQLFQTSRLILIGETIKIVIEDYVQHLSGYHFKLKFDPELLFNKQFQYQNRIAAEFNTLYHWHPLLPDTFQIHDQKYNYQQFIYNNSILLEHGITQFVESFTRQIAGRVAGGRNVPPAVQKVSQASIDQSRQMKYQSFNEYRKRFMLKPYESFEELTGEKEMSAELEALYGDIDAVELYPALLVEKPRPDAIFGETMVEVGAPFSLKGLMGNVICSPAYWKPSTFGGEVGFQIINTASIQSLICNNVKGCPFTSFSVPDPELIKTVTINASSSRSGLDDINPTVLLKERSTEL
Conditions: Gerhauser et al., 2002; cited from earlier work.

The target of another data set is T2, cyclooxygenase-1 (Ovis aries, UniProt P05979).
T2 sequence (P05979 25-600): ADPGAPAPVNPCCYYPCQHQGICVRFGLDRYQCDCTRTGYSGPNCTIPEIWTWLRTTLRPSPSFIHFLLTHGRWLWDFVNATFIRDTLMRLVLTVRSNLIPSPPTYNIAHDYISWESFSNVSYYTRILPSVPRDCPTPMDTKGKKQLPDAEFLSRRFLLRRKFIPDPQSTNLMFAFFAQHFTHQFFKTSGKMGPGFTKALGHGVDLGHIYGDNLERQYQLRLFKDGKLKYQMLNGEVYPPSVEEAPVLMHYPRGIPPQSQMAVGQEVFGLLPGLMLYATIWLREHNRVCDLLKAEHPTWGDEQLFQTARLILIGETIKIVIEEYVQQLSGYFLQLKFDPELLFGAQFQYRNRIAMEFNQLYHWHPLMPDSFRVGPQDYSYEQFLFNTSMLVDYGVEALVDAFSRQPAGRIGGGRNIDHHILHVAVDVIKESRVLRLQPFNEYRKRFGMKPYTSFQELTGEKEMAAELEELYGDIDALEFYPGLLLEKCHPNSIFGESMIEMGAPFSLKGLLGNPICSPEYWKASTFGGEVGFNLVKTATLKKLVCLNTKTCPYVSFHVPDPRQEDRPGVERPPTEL
Conditions: Gerhauser et al., 2002; cited from earlier work.

Data set [4] can be described thus: Bioavailability and stability of 8-isopentylnaringenin compared with 8-prenylnaringenin.
In another data set the target is T3, human oestrogen receptor (Homo sapiens, UniProt P03372).
T3 construct: expressed in transfected cells; host or cells: Saccharomyces cerevisiae
Description: Oestrogen-inducible yeast screen (Lac-Z reporter). It is filed as cell-based. The note with it: FIG. 4, relative to 8-prenylnaringenin. As to the method: The yeasts were grown in a medium containing increasing concentrations of 17β-estradiol (positive control), 8-prenylnaringenin (8-PN), 8-isopentylnaringenin (8PN-H2) or dihydro-isoxanthohumol (IsoX-H2). Expression of the Lac-Z reporter gene was spectrophotometrically measured and quantified.

The conditions of data set [5]: Milligan et al., 2002; cited from earlier work.

T3 sequence (P03372 whole entry): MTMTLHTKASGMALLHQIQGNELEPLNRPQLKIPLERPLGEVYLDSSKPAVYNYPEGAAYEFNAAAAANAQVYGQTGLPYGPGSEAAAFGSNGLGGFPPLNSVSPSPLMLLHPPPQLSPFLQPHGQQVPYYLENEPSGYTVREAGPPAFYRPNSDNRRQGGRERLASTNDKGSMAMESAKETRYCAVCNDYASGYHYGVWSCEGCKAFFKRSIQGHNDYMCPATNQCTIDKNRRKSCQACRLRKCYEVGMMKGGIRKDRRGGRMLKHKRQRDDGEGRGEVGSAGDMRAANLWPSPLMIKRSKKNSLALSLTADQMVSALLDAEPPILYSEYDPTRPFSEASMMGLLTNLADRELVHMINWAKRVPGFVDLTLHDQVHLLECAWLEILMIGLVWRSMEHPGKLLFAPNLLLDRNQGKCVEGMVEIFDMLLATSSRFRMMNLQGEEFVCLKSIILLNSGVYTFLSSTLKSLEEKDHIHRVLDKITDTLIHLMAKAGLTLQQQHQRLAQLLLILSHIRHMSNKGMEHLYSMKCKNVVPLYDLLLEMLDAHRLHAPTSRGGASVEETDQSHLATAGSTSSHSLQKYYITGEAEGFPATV

With `CC(C)=CCC/C(C)=C/Cc1c(O)cc(O)c2c1O[C@H](c1ccc(O)cc1)CC2=O` [8-geranylnarin-genin], in data set [1], the oestrogenic activity result is reported as “only weakly oestrogenic”.
Take `COc1cc(O)c(CC=C(C)C)c(O)c1C(=O)/C=C/c1ccc(O)cc1` [xanthohumol]: in data set [2] (FIG. 2), the “xanthohumol to 8-prenylnaringenin weight ratio giving sufficient inhibition of proliferation” value is on record as “at least 10”. Further, the “concentrations of xanthohumol that significantly inhibit the proliferation induced by 8-prenylnaringenin” value in data set [2] (MCF-7 cells, 8-prenylnaringenin 1, 10, 100 nM) is on record as “at least 5 μM”. The “concentrations of xanthohumol that stimulated the proliferation induced by 8-prenylnaringenin” value in data set [2] (MCF-7 cells, each concentration of 8-prenylnaringenin, ratio of xanthohumol to 8-prenylnaringenin below 10) is < 1 µM. For the same molecule, in data set [3], the “prevention of carcinogen-induced preneoplastic lesions” value is listed as “efficient at nanomolar concentrations”. The “inhibition of cyclooxygenase-2 activity” value on cyclooxygenase-2 is reported as “inhibition”. In addition, the “inhibition of cyclooxygenase-1 activity” value on cyclooxygenase-1 is “inhibition”. Moreover, the “oestrogenic activity of xanthohumol” value in data set [1] (no source stated) was “oestrogenically inactive”.
For the molecule `CC(C)CCc1c(O)cc(O)c2c1O[C@H](c1ccc(O)cc1)CC2=O` [8-isopentylnaringenin], the “stability compared to 8-prenylnaringenin (less easily metabolised)” value in data set [4] is on record as “better stability”. The “oestrogenic activity, times weaker than 8-prenylnaringenin” value at human oestrogen receptor is listed as 3-4 times.
As for `CC(C)=CCc1c(O)c(CC=C(C)C)c2c(c1O)C(=O)C[C@@H](c1ccc(O)cc1)O2` [6,8-diprenylnaringenin], the oestrogenic activity entry in data set [1] was “only weakly oestrogenic”.
Consider `CC(C)=CCc1c(O)cc2c(c1O)C(=O)C[C@@H](c1ccc(O)cc1)O2` [6-prenylnaringenin], for which, in data set [1], the oestrogenic activity entry is given as “only weakly oestrogenic”.
On to `CC(C)=CCc1c(O)cc(O)c2c1O[C@H](c1ccc(O)cc1)CC2=O` [8-prenylnaringenin], for which the “proliferation of MCF-7 breast cancer cells” value in data set [2] (increasing concentrations of 8-prenylnaringenin (1 nM, 10 nM, 100 nM), FIG. 2) was “increased proliferation”. Moreover, in data set [5], the “oestrogenic activity in vivo” value is recorded as “high oestrogenic activity”. In data set [1], the oestrogenic activity entry is given as “activity greater than that of other established phyto-oestrogens”.
Take `COc1cc(O)c(CC=C(C)C)c2c1C(=O)CC(c1ccc(O)cc1)O2` (stereo not shown) [isoxanthohumol]: the oestrogenic activity entry in data set [1] was “only weakly oestrogenic”.
